The record followed here is patent publication US7094802B2, “PKB-3564 substance with neovascularization inhibitory activity” (Riken, priority 2001, dated 2006).

The subject of series [1] is Jurkat cells. Description: Suppression of Fas antibody-induced apoptosis, survival rate by MTT method. It is filed as cell-based. The following applies: Homo sapiens, Fas antibody CH-11 100 ng/ml, 6 hours, read-out: concentration that inhibited 50% of apoptosis induced by Fas antibody. How it is done:
Jurkat cells, an […] T cell leukemia cell line expressing Fas, were used as Fas antibody sensitive cells. The Jurkat cells were cultured in a RPMI medium containing 10% calf serum in an incubator that contained 5% carbon dioxide and was saturated with stream. The Jurkat cells in the logarithmic proliferation period were added with RKB-3564A, RKB-3564B, RKB-3564D, RKB-3564E, and RKB-3564F in a series of dilution, and cultured in the presence of Fas antibody, CH-11 (Medical & Biological Laboratories Co., Ltd., 100 ng/ml) for 6 hours, and the survival rate of the cells was assayed by the MTT method. The survival rate was calculated according to the following formula. Survival rate (%)={[(absorbance in the presence of anti-Fas antibody and the compound)−(absorbance in the presence of anti-Fas antibody and in the absence of the compound)]/[(absorbance in the absence of anti-Fas antibody and the compound)−(absorbance in the presence of anti-Fas antibody and in the absence of the compound)]}×100
In general terms: Tetrazolium dyes change colour on reduction, which living cells bring about.

Series [2] can be described thus: Solubility in solvents.

Molecules are shown by their SMILES. Converted amounts (≈) assume the structure as drawn.

As for `CC1OC2C3=C(C(=O)C4OC4C3O)C1C1C(C)OC=C3C(O)C4OC4C(=O)C321` (centres unmarked) [RKB-3564E], the IC50 in series [1] lay in the range of 3 to 10 µg/mL (≈ 7.72 to 25.7 µM).
On the same count and under the same terms, for `CC1OC2C3=C(C(=O)C4OC4C3O)C1C1C(C)OC=C3C(O)C4OC4C(=O)C321` (single isomer, unassigned) [RKB-3564A] the value was 3 to 10 µg/mL (≈ 7.72 to 25.7 µM).
As to `CC1OC2C3=C(C(=O)C4OC4C3O)C1C1C3=C(C(O)C4OC4C3=O)C2OC1C` (centres unmarked) [RKB-3564D], the “Solubility in methanol or dimethyl sulfoxide” value in series [2] (methanol or dimethyl sulfoxide) is “easily soluble”. Moreover, in series [2] (n-hexane), the Solubility in n-hexane result was “Insoluble”. Moreover, the IC50 in series [1] was in the range of 3 to 10 µg/mL (≈ 7.72 to 25.7 µM).
